PubChem BioAssay (NCI)
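Following 48 hours of exposure in 96-well plates, responses at five concentrations were used to interpolate endpoints linearly. At the GI50, growth is halved. TGI: total growth inhibition.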

Experiments:
Assay in all cases: DTP human tumour cell line panel, 48 h
786-0 renal = test system: 786-0 renal
SNB-75 CNS = test system: SNB-75 CNS
KM12 colon = test system: KM12 colon
IGROV1 ovarian = test system: IGROV1 ovarian
UO-31 renal = test system: UO-31 renal
SN12C renal = test system: SN12C renal
HS 578T breast = test system: HS 578T breast
OVCAR-8 ovarian = test system: OVCAR-8 ovarian
CCRF-CEM leukemia = test system: CCRF-CEM leukemia
NCI-H226 lung = test system: NCI-H226 lung

Row | SMILES | GI50 (786-0 renal) [µM] | TGI (786-0 renal) [µM] | GI50 (SNB-75 CNS) [µM] | TGI (SNB-75 CNS) [µM] | GI50 (KM12 colon) [µM] | TGI (KM12 colon) [µM] | GI50 (IGROV1 ovarian) [µM] | TGI (IGROV1 ovarian) [µM] | GI50 (UO-31 renal) [µM] | TGI (UO-31 renal) [µM] | GI50 (SN12C renal) [µM] | TGI (SN12C renal) [µM] | GI50 (HS 578T breast) [µM] | TGI (HS 578T breast) [µM] | GI50 (OVCAR-8 ovarian) [µM] | TGI (OVCAR-8 ovarian) [µM] | GI50 (CCRF-CEM leukemia) [µM] | TGI (CCRF-CEM leukemia) [µM] | GI50 (NCI-H226 lung) [µM] | TGI (NCI-H226 lung) [µM]
1 | Cc1cc(I)cc(CNCCN(C)C)c1O | > 92.2 | > 100 | 49.4 | > 100 | > 100 | > 100 | 48.4 | > 100 | 60.5 | > 100 | > 85.6 | > 100 | 49.5 | > 100 | > 100 | > 100 | > 100 | > 100 | > 100 | > 100
2 | Nc1ccc(/C=C/c2ccc3ncccc3c2)cc1 | > 100 | > 100 | 37.1 | > 100 | 49.1 | > 100 | > 100 | > 100 | 2.32 | > 100 | > 100 | > 100 | > 100 | > 100 | > 100 | > 100 | 0.821 | > 100 | > 100 | > 100
3 | Sc1cccc2cccnc12 | 1.22 | 14.3 | 2.72 | 11.6 | 0.874 | 12.1 | 0.541 | 12.6 | 0.616 | 11.9 | 1.14 | 15.1 | 2.81 | 16.4 | 0.537 | 15.3 | 0.392 | 24.5 | 1.61 | 8.83
4 | O=[N+]([O-])c1ccc(C2=NCCO2)cc1 | > 100 | > 100 | > 100 | > 100 | > 100 | > 100 | > 100 | > 100 | > 100 | > 100 | > 100 | > 100 | > 100 | > 100 | > 100 | > 100 | 3.15 | > 100 | > 100 | > 100
5 | Cn1cc(C2=C(c3ccsc3)C(=O)NC2=O)c2ccccc21 | > 25 | > 25 | 1.07 | > 25 | > 25 | > 25 | > 25 | > 25 | 8.49 | > 25 | > 25 | > 25 | > 25 | > 25 | > 25 | > 25 | > 21.1 | > 25 | > 22.6 | > 25
6 | O=C1NN2CC(c3ccccc3)=NN=C2c2ccccc21 | 26.2 | 72.3 | > 100 | > 100 | 31.9 | > 100 | 42.8 | > 100 | 28 | 66.6 | 29.1 | 78.3 | 68 | > 100 | 29.1 | 74 | 22.9 | 55.7 | 22.8 | 57.8
7 | CN1CCN(Cc2ccc(NC(=O)c3cncc(C#Cc4cnc(N)c5ncccc45)c3)cc2C(F)(F)F)CC1 | 1.12 | 2.52 | 0.391 | 1.48 | < 0.0146 | 4.03 | 0.175 | 2.58 | 0.242 | 1.21 | 0.307 | 1.5 | 0.213 | 1.68 | 0.58 | 3.51 | 0.324 | – | 0.267 | 12.5
8 | ClC1=C(Cl)C(Cl)(C2(Cl)C(Cl)=C(Cl)C(Cl)=C2Cl)C(Cl)=C1Cl | 0.242 | 0.746 | 1.63 | 4.46 | 2.04 | 4.32 | 1.48 | 3.16 | 0.17 | 0.445 | 1.32 | 3.8 | 2.22 | 6.43 | 0.365 | 3.79 | 0.166 | 0.496 | 0.296 | 2.74
9 | CNC(=O)Oc1cc(C(C)C)ccc1Sc1ccc(C(C)C)cc1OC(=O)NC | 11.5 | 28.7 | 2.88 | 12.2 | 5.78 | 18.9 | 4.98 | 23.8 | 3.28 | 16.6 | 7 | 24 | 4.7 | 35.6 | 5.42 | 27.9 | 3.41 | 46.3 | 10 | 25.5
10 | CN(C)CCNC(=O)c1cc2c3cc(Cl)ccc3[nH]c2c2ncccc12 | 4.83 | 18.1 | 3.85 | 15.8 | 3.03 | 13.7 | 1.52 | 4.34 | 1.1 | 2.49 | 2.9 | 13.4 | 1.87 | 9.66 | 2.57 | 12.7 | 2.09 | 5.47 | 4.04 | 16.7
11 | COc1cccc2c1nc(C(F)F)n2-c1nc(-c2ccc(NS(=O)(=O)CCN(C)C)cc2)nc(N2CCOCC2)n1 | 0.231 | 2.76 | 0.0246 | 0.282 | 0.275 | 12.8 | 0.0261 | 0.154 | 0.0659 | 1.1 | 0.305 | > 100 | 0.0664 | 0.5 | 0.295 | > 41.1 | 0.257 | 20.5 | 0.191 | 6.43
12 | C=CC1(C)CCC2C(=CCC3C2(C)CC(O)C(O)C3(C)COC2OC(CO)C(O)C(O)C2O)C1 (stereo not drawn) | – | > 100 | – | > 100 | – | > 100 | – | > 100 | – | > 100 | – | > 100 | – | > 100 | – | > 100 | – | > 100 | – | > 100
13 | O=C(/C=C\c1ccc(O)c(O)c1)c1ccccc1O | 10.6 | 23.3 | 14.7 | 94.3 | 11.8 | 27.6 | 0.711 | 23.8 | 2.2 | 18 | 11.8 | 37.5 | 17.2 | 81.9 | 14.7 | 56.8 | 0.645 | > 100 | 11 | 39.1
14 | CC(C)=CCc1cc2c(cc1O)C1=C(C(=O)C3=C(NCCS3(=O)=O)C1=O)C(C=C(C)C)O2 (stereo not drawn) | 9.97 | > 16.7 | 10.8 | > 16.7 | 7.12 | > 16.7 | 3.69 | 15 | 5.57 | > 16.7 | 2.78 | 5.69 | 4.85 | > 16.7 | 4.75 | > 16.7 | 4.53 | > 16.7 | 14.4 | > 16.7
15 | CS(=O)(=O)OCCN(CCOS(C)(=O)=O)c1ccc(C=Nc2ccc(-c3csc(COc4ccccc4)n3)cc2)cc1 | – | 4.52 | – | 11.6 | – | 19.8 | – | 32.8 | – | 2.93 | – | 18.7 | – | > 53.1 | – | 19.6 | – | 35.6 | – | 18.2
16 | CN1C(=O)C(c2c[nH]c3ccccc23)=C(c2c[nH]c3ccccc23)C1=O | 9.85 | > 25 | 4.26 | > 25 | 5.66 | > 21.3 | 5.47 | > 22.8 | 2.64 | > 20.6 | 7.75 | > 25 | 5.18 | 21.3 | 7.67 | > 25 | 7.84 | > 25 | 5.96 | > 19.4
17 | Cc1c2cnccc2c(C)c2c1c1ccccc1n2CCOC(=O)c1ccccc1 | – | 28.6 | – | 44.7 | – | > 98 | – | 42.7 | – | 15.3 | – | 21 | – | 84.6 | – | 26.9 | – | 64.4 | – | 70
18 | O=C1NC(=O)C(c2c[nH]c3ccccc23)=C1c1c[nH]c2ccccc12 | > 19.1 | > 25 | 4.11 | > 25 | 9.3 | > 25 | > 20.9 | > 25 | 3.08 | > 25 | 16.3 | > 25 | 5.56 | > 25 | 15.8 | > 25 | 10.5 | > 25 | 3.83 | > 25
19 | O=P1(NCCCl)OCCCN1CCCl (stereo not drawn) | – | > 466 | – | 435 | – | 448 | – | 457 | – | 441 | – | 437 | – | > 500 | – | 439 | – | 400 | – | 425
20 | CCCCn1c(=O)[nH]c(N)c([C@@H]2c3c([nH]c(=O)n(CCCC)c3=O)Oc3ccc4ccccc4c32)c1=O | 2.04 | 4.41 | 1.71 | 9.62 | 1.69 | 3.26 | 1.89 | 4.78 | 1.35 | 2.69 | 2.51 | 6.94 | 4.55 | 37.1 | 1.82 | 3.51 | 0.326 | 1.38 | 4.96 | 25.2
21 | C/C(=C\C(=O)O[C@H]1[C@@H]2[C@H](C)CC[C@H]2[C@]2(C)O[C@@]1(C1CCCCC1)C[C@H]2OC(=O)CO)c1ccccc1 | 5.11 | 10.6 | 0.331 | 7.21 | 6.44 | 13 | 7.58 | 14.7 | – | – | 0.0228 | 7.18 | 0.0101 | 0.0295 | 4.27 | 10.7 | 7 | 15.3 | 5.98 | 12.3
22 | COC(=O)[C@@H](C)C[C@H](Cc1ccccc1)NC(=O)c1nc([C@@H](C[C@H](C(C)C)N(C)C(=O)[C@@H](NC(=O)[C@H]2C[C@H](O)CCN2C)C(C)C)OC(C)=O)sc1C(C)C | 0.0337 | 4.65 | 0.00462 | 3.85 | 0.00473 | > 3.95 | 0.00324 | > 11.1 | 0.504 | > 11.1 | 0.00671 | 3.3 | 0.0122 | > 8.26 | 0.0193 | > 11.1 | 0.00525 | > 11.1 | 0.0257 | –
23 | CCC(=C(c1ccc(OCCN2CCCCC2)cc1)c1ccc(OCCN2CCCCC2)cc1)c1ccc(Cl)cc1 | 2.51 | 5.09 | > 16.7 | > 16.7 | > 16.7 | > 16.7 | 12.9 | > 16.7 | 2.32 | 7.87 | > 16.7 | > 16.7 | 4.23 | > 16.7 | > 16.7 | > 16.7 | 1.92 | > 16.7 | > 16.7 | > 16.7
24 | COc1cc2c(c3oc(-c4ccc(O)cc4)c(O)c(=O)c13)CCC(C)(C)O2 | 0.0788 | 0.214 | 0.103 | 0.283 | 0.384 | 23.4 | 0.158 | 0.526 | 0.0281 | 0.075 | 0.271 | 0.884 | 0.0903 | – | 0.292 | 0.856 | 0.359 | > 100 | 0.536 | 2.55
25 | CCN1CCN(CCC(=O)Nc2cccc(-n3cc(-c4ccncc4)c(-c4ccc(Cl)c(OC)c4)n3)c2)CC1 | 0.701 | 2.2 | 0.392 | 6.82 | 0.394 | 1.68 | 1.09 | 5.18 | 0.922 | 2.53 | 0.623 | 2.88 | 0.454 | 3.85 | 1.26 | 3.82 | 0.374 | 10.3 | 1.26 | 7.31
26 | C=CCc1cccc(C=O)c1O | > 100 | > 100 | 10.6 | > 100 | – | – | > 100 | > 100 | 70.1 | > 100 | 20.8 | > 100 | > 100 | > 100 | 39.5 | > 100 | 4 | > 100 | > 100 | > 100
